# In patent publication US20260297060A1, “COMPOUNDS FOR THE DEGRADATION OF MUTANT BRAF” (C4 THERAPEUTICS, INC., priority 2023, published 2026):
# System: A375 human melanoma xenografts
# Assay: In vivo therapeutic efficacy in A375 human melanoma xenografts (tumor volume, T/C, TGI), Example 14
# Parameters: species or system human tumor in female BALB/c nude mice
# Description: Agents were tested in the A375 human melanoma xenografts. Compound 26 and Compound 141 were administered to BALB/c nude mice bearing A375 tumors from PG-DO and dosed via PO twice a day (BID) or third a day (TIP) or dosed P daily (QD) from PG-D. Dabrafenib was administered to BALB/c nude mice bearing A375 tumors from PG-D1 and dosed via P daily (QD). Compound 26 was dosed at 1.5 mg/kg (QD), 2 mg/kg (TID), 3 mg/kg (BID), 6 mg/kg (QD) and 10 mg/kg (BID) for 21 days. Compound 141 was dosed at 0.75 mg/kg (BID), 1 mg/kg (TID), 1.5 mg/kg (BID), 3 mg/kg (QD) and 5 mg/kg (BID) for 21 days. Dabrafenib was dosed at 100 mg/kg for 21 days. This study was non-GLP.
# One hundred and thirty-eight female BALB/c nude Mus Musculus mice procured from Shanghai Lingchang Biological Science and Technology Co., LTD between the ages of six to eight weeks and with body weight between eighteen and twenty-two grams were used for the study. A spare mouse was also procured.
# The A375 tumor cells were maintained in vitro in DMEM medium supplemented with 10% fetal bovine serum and 1% Penicillin-Streptomycin at 37° C. in an atmosphere of 5% CO2 in air. The tumor cells were routinely sub-cultured twice weekly. The cells growing in an exponential growth phase were harvested and counted for tumor inoculation.
# Each mouse was inoculated subcutaneously at the right flank with A375 cells (5×10^6) in 0.2 mL of PBS supplemented with Matrigel (PBS: Matrigel=1:1) for tumor development. Animals were grouped for efficacy study on day 15 after tumor inoculation when the average tumor volume reached 220 mm^3. The test articles administration and the animal numbers in each group are shown in the above experimental Table 75.
# At the time of routine monitoring, the animals were checked daily for any effects of tumor growth and treatments on normal behavior such as mobility, food and water consumption (by looking only), body weight gain/loss (body weights were measured twice weekly), eye/hair matting and any other abnormal effect as stated in the protocol. Death and observed clinical signs were recorded on the basis of the numbers of animals within each subset.
# Prior to the onset of drug treatment, mice were measured for tumor size in two dimensions using a caliper, and the tumor volume (mm^3) was calculated using formula V=0.5 a×b^2 where a and b are the long and short diameters of the tumor in mm, respectively. Mice were randomized into different treatment groups based on the tumor volume.
# The major endpoint was to see if the tumor growth could be delayed or mice could be cured. The tumor size was then used for calculations of T/C value. The T/C value (in percent) is an indication of antitumor effectiveness; T and C are the mean volumes of the treated and control groups, respectively on specified day.
# TGI was calculated for each group using the formula: TGI (%)=[1−(Ti−T0)/(Ci−C0)]×100; Ti is the average tumor volume of a treatment group on a given day, T0 is the average tumor volume of the treatment group on the day of treatment start, Ci is the average tumor volume of the vehicle control group on the same day with Ti, and C0 is the average tumor volume of the vehicle group on the day of treatment start.
# A one-way ANOVA followed by Dunnett's multiple comparison test was performed to compare tumor volume among vehicle group (Group 1) and treatment groups (Group 2-Group 12). All data were analyzed using GraphPad Prism, ns indicates p>0.05, * indicates p<0.05, ** indicates p<0.01, *** indicates p<0.001 and **** indicates p<0.0001.
# Tumor growth inhibition of Compound 26, Compound 141 and dabrafenib in the treatment of female BALB/c nude mice bearing A375 xenografts was calculated based on tumor volume measured on […]. TGI and T/C were calculated respectively and the data are detailed in Table 82.
# [1] = 2 mg/kg p.o. TID × 21 days, PG-D21
structure (smiles),measurement,setting,value
"CCN(C)S(=O)(=O)Nc1ccc(F)c(Oc2ccc3ncn([C@H]4COC5(CCN(C6CC7(C6)CN(c6cc8c(cc6F)c(N6CCC(=O)NC6=O)nn8C)C7)CC5)C4)c(=O)c3c2)c1C#N [Compound 26, (3R)-3-[6-[2-cyano-3-[[ethyl(methyl)sulfamoyl]amino]-6-fluoro-phenoxy]-4-oxo-quinazolin-3-yl]-8-[2-[3-(2,4-dioxohexahydropyrimidin-1-yl)-5-fluoro-1-methyl-indazol-6-yl]-2-azaspiro[3.3]heptan-6-yl]-1-oxa-8-azaspiro[4.5]decane]",Tumor volume,"1.5 mg/kg p.o. BID x 21 days, day 0, mean ± SEM",220 ± 16 mm^3
same,Tumor volume,"1.5 mg/kg p.o. BID x 21 days, day 4, mean ± SEM",249 ± 21 mm^3
same,Tumor volume,"1.5 mg/kg p.o. BID x 21 days, day 7, mean ± SEM",227 ± 23 mm^3
same,Tumor volume,"1.5 mg/kg p.o. BID x 21 days, day 11, mean ± SEM",210 ± 26 mm^3
same,Tumor volume,"1.5 mg/kg p.o. BID x 21 days, day 14, mean ± SEM",204 ± 26 mm^3
same,Tumor volume,"1.5 mg/kg p.o. BID x 21 days, day 18, mean ± SEM",271 ± 44 mm^3
same,Tumor volume,"1.5 mg/kg p.o. BID x 21 days, day 21, mean ± SEM",400 ± 70 mm^3
same,Tumor volume,"1.5 mg/kg p.o. BID x 21 days, day 25 (dosing-free regrowth), mean ± SEM",730 ± 94 mm^3
same,Tumor volume,"1.5 mg/kg p.o. BID x 21 days, day 28 (dosing-free regrowth), mean ± SEM",1006 ± 99 mm^3
same,Tumor volume,"1.5 mg/kg p.o. BID x 21 days, day 32 (dosing-free regrowth), mean ± SEM",1224 ± 99 mm^3
same,Tumor volume,"1.5 mg/kg p.o. BID x 21 days, day 35 (dosing-free regrowth), mean ± SEM",1497 ± 94 mm^3
same,Tumor volume,"1.5 mg/kg p.o. BID x 21 days, day 39 (dosing-free regrowth), mean ± SEM",1978 ± 148 mm^3
same,Tumor volume,"1.5 mg/kg p.o. BID x 21 days, day 42 (dosing-free regrowth), mean ± SEM",2420 ± 205 mm^3
same,Tumor volume,"1.5 mg/kg p.o. BID x 21 days, day 46 (dosing-free regrowth), mean ± SEM",2759 ± 274 mm^3
same,Tumor volume,"1.5 mg/kg p.o. BID x 21 days, day 49 (dosing-free regrowth), mean ± SEM",2514 ± 268 mm^3
same,Tumor volume,"1.5 mg/kg p.o. BID x 21 days, day 53 (dosing-free regrowth), mean ± SEM",3087 ± 444 mm^3
same,Tumor volume,"1.5 mg/kg p.o. BID x 21 days, day 56 (dosing-free regrowth)",3153 mm^3
same,Tumor volume,"2 mg/kg p.o. TID x 21 days, day 0, mean ± SEM",220 ± 15 mm^3
same,Tumor volume,"2 mg/kg p.o. TID x 21 days, day 4, mean ± SEM",172 ± 13 mm^3
same,Tumor volume,"2 mg/kg p.o. TID x 21 days, day 7, mean ± SEM",99 ± 9 mm^3
same,Tumor volume,"2 mg/kg p.o. TID x 21 days, day 11, mean ± SEM",68 ± 8 mm^3
same,Tumor volume,"2 mg/kg p.o. TID x 21 days, day 14, mean ± SEM",51 ± 7 mm^3
same,Tumor volume,"2 mg/kg p.o. TID x 21 days, day 18, mean ± SEM",36 ± 4 mm^3
same,Tumor volume,"2 mg/kg p.o. TID x 21 days, day 21, mean ± SEM",41 ± 5 mm^3
same,Tumor volume,"2 mg/kg p.o. TID x 21 days, day 25 (dosing-free regrowth), mean ± SEM",85 ± 16 mm^3
same,Tumor volume,"2 mg/kg p.o. TID x 21 days, day 28 (dosing-free regrowth), mean ± SEM",156 ± 32 mm^3
same,Tumor volume,"2 mg/kg p.o. TID x 21 days, day 32 (dosing-free regrowth), mean ± SEM",292 ± 57 mm^3
same,Tumor volume,"2 mg/kg p.o. TID x 21 days, day 35 (dosing-free regrowth), mean ± SEM",441 ± 86 mm^3
same,Tumor volume,"2 mg/kg p.o. TID x 21 days, day 39 (dosing-free regrowth), mean ± SEM",754 ± 156 mm^3
same,Tumor volume,"2 mg/kg p.o. TID x 21 days, day 42 (dosing-free regrowth), mean ± SEM",980 ± 198 mm^3
same,Tumor volume,"2 mg/kg p.o. TID x 21 days, day 46 (dosing-free regrowth), mean ± SEM",1320 ± 265 mm^3
same,Tumor volume,"2 mg/kg p.o. TID x 21 days, day 49 (dosing-free regrowth), mean ± SEM",1646 ± 332 mm^3
same,Tumor volume,"2 mg/kg p.o. TID x 21 days, day 53 (dosing-free regrowth), mean ± SEM",2216 ± 435 mm^3
same,Tumor volume,"2 mg/kg p.o. TID x 21 days, day 56 (dosing-free regrowth), mean ± SEM",2482 ± 579 mm^3
same,Tumor Size on PG-D21 (Mean ± SEM),2 mg/kg p.o. TID × 21 days,41 ± 5 mm^3
same,T/C,[1],2.2%
same,TGI,[1],110.8%
same,Tumor volume,"3 mg/kg p.o. BID x 21 days, day 0, mean ± SEM",220 ± 15 mm^3
same,Tumor volume,"3 mg/kg p.o. BID x 21 days, day 4, mean ± SEM",219 ± 16 mm^3
same,Tumor volume,"3 mg/kg p.o. BID x 21 days, day 7, mean ± SEM",136 ± 11 mm^3
same,Tumor volume,"3 mg/kg p.o. BID x 21 days, day 11, mean ± SEM",83 ± 6 mm^3
same,Tumor volume,"3 mg/kg p.o. BID x 21 days, day 14, mean ± SEM",52 ± 5 mm^3
same,Tumor volume,"3 mg/kg p.o. BID x 21 days, day 18, mean ± SEM",45 ± 7 mm^3
same,Tumor volume,"3 mg/kg p.o. BID x 21 days, day 21, mean ± SEM",48 ± 9 mm^3
same,Tumor volume,"3 mg/kg p.o. BID x 21 days, day 25 (dosing-free regrowth), mean ± SEM",129 ± 75 mm^3
same,Tumor volume,"3 mg/kg p.o. BID x 21 days, day 28 (dosing-free regrowth), mean ± SEM",258 ± 165 mm^3
same,Tumor volume,"3 mg/kg p.o. BID x 21 days, day 32 (dosing-free regrowth), mean ± SEM",423 ± 234 mm^3
same,Tumor volume,"3 mg/kg p.o. BID x 21 days, day 35 (dosing-free regrowth), mean ± SEM",578 ± 289 mm^3
same,Tumor volume,"3 mg/kg p.o. BID x 21 days, day 39 (dosing-free regrowth), mean ± SEM",878 ± 311 mm^3
same,Tumor volume,"3 mg/kg p.o. BID x 21 days, day 42 (dosing-free regrowth), mean ± SEM",1129 ± 390 mm^3
